SMILES strings stand for the structures. ≈ marks a conversion by molar mass, not a printed value. Peptide text beside a SMILES is read from it. * marks the point of attachment. Acm = CC(=O)NC*

The test system of experiment [1] is E. coli O6K5. In words: urinary tract infection in mice, bacteria (CFU) in kidney (Example 6). Format: in vivo. The conditions noted are these: 500 μg per mouse orally 30 minutes after instillation, 24 hours. Here is the method: E. coli O6K5 was instilled into the urinary bladder of mice. 30 minutes after instillation the different agents specified in table 5 were administered orally in an amount of 500 μg per mouse and 24 hours after instillation the number of bacteria (CFU) present in bladder and in kidney was determined.
The control group consisted of 10 animals in experiment I and of 23 animals in experiment II. The animals in the control groups were given tap water instead of peptide or hLF.

Experiment [2] relates to C. albicans. In words: microbe, parasite or virus in culture. The format is cell-based. The method, then: (§1) In the examples, the minimal microbicidal concentrations (MMC) and minimal inhibitory concentrations (MIC) were determined as follows, unless otherwise specified in the examples. Bacterial or fungal strains were cultured in BHI medium over night at 37° C. A volume of the culture was transferred to a new tube with BHI and incubated for two more hours. Thereafter the cells were spun down and the pellet was suspended in BHI medium diluted 1/100 (1% BHI). The concentration of bacterial or fungal cells was spectrophotometrically determined at 650 nm. The microbial concentrations were also determined by viable counts. Peptides serially diluted in 1% BHI by twofold or tenfold steps were added in triplicate to the wells of a microtiterplate (200 μl per well). The bacterial or fungal cell solutions were added in 10 μl volumes to give a final concentration of approximately 1-5×10^5 cells per ml in the well. The microplate was incubated at 37° C. in a humid chamber for two hours. Thereafter 5 μl was taken from each well and added as a drop onto a blood agar plate and incubated over night at 37° C. The microplate was incubated for another 20 hours at 37° C. and thereafter analysed spectrophotometrically at 650 nm in a microplate reader (Emax, Molecular Devices, USA). The concentration of peptide causing a 99% reduction of the inoculum after 2 hours of incubation was defined as the MMC99%. The MIC value was defined as the concentration giving no increase in the absorbance value above the background level after 20 hours of incubation.
Also in this example one of the peptides according to the invention—this time the peptide with SEQ. ID. NO. 4, was compared to a conventional fungicide, amphotericin. The antifungal activity against C. albicans was studied. Twofold serial dilutions with a starting concentration of 20 μg/ml were used. BHI diluted 1/100 was used as growth medium.

The test system of experiment [3] is C. albicans. In words: fungicidal activity MMC99%, C. albicans (Example 27). The conditions noted are these: BHI diluted 1/100 (Table 23). The format is cell-based. The method, then:
as §1
In this example the fungicidal activity of three of the peptides according to the invention was studied, and tested against three different fungi. The fungi were incubated in BHI medium diluted 1/100. The concentration of each peptide needed to kill 99% of the fungi (MMC99%) was determined.

A further experiment deals with Candida albicans. Kind of experiment: fungicidal activity against Candida albicans, comparison with EP-A-0 629 347 peptides (Example 7). The conditions noted are these: C. albicans, I (tenfold steps), 5 · 10^3 yeast cells per ml. Format: cell-based. Here is the method:
In this example an in vitro test was performed to compare the bactericidal and fungicidal activity of the peptides according to the invention with peptides described in EP-A-0 629 347. The peptide according to the invention used was peptide 4, and the peptides according to EP-A-0 629 347 called Morinaga 10, Morinaga 11, Morinaga 12, and Morinaga 13.
The peptides were incubated with E. coli O14 and Candida albicans. Two concentrations of C. albicans yeast cells were tested, 5·10^6 and 5·10^3 per ml. Different concentrations of the peptides were tested.
After the incubation, samples were taken for bacterial plating. Serial dilutions of tenfold steps were used in the experiments marked with I in table 5 and of twofold steps in the experiments marked with II.

For experiment [4], the system named is C. albicans. In words: microbicidal activity MMC99%, C. albicans (Example 28). The format is cell-based. The conditions noted are these: C. albicans (Table 24). In outline:
(§2)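 Peptides serially diluted in 1% BHI were incubated with E. coli O6K5 or C. albicans (~1-5×10^5 cells/ml) for 2 h at 37 °C, then spotted on blood agar overnight. MMC99% was the peptide concentration causing 99% reduction of the inoculum.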

Experiment [5] concerns LPS-induced IL-6 response in a monocytic cell line (THP-1). Kind of experiment: inhibition of LPS-induced IL-6 response in THP-1 cells (Example 5). Format: cell-based. The conditions noted are these: agent added 30 minutes after LPS. Here is the method:
In this example an in vitro test was performed to study the anti-inflammatory activity of the peptides according to the invention. More precisely, the inhibitory effect of the peptides according to the invention on the LPS-induced IL-6 response in a monocytic cell line (THP-1) was studied and compared to the effect of human lactoferrin by use of the method described by I. Mattsby-Baltzer et al., Pediatr. Res. 40:257-262, 1996. The IL-6 response in the THP-1 cells was induced by addition of LPS. hLF, peptide 3 and peptide 4, respectively, were added 30 minutes after LPS.

The next experiment concerns Candida krusei. In words: fungicidal activity against Candida krusei strains (Example 4). The format is cell-based. The conditions noted are these: Exp. I. The method, then:
In this example the fungicidal activity of the peptides according to the invention was tested and compared to the fungicidal activity of human lactoferrin. Different concentrations of hLF, peptide 3 and peptide 4 were incubated with different strains of Candida albicans and Candida krusei during 1-2 hours at 37° C. in 0.05 mM KCl at pH 7.0 at two different occasions—experiment I and II, respectively. After incubation samples were taken for plating on Saboroud plates.

Another experiment concerns C. neoformans. Kind of experiment: fungicidal activity MMC99%, C. neoformans (Example 27). The conditions noted are these: BHI diluted 1/100 (Table 23). The format is cell-based. Here is the method:
as §1, with “The bacterial or fungal cell solutions were added in 10 μl volumes to give a final concentration of approximately 1-5×10^5 cells per ml in the well. The microplate was incubated at 37° C. in a humid chamber for two hours. Thereafter 5 μl was taken from each well and added as a drop onto a blood agar plate and incubated over night at 37° C.” left out, “The concentration of peptide causing a 99% reduction of the inoculum after 2 hours of incubation was defined as the MMC99%.” left out
In this example the fungicidal activity of three of the peptides according to the invention was studied, and tested against three different fungi. […] The concentration of each peptide needed to kill 99% of the fungi (MMC99%) was determined.

Experiment [6] relates to E. coli O6K5. In words: microbicidal activity MMC99%, E. coli O6K5 (Example 28). The format is cell-based. The conditions noted are these: E. coli O6K5 (Table 24). In short, it runs like this:
as §2

Experiment [7] deals with C. albicans. In words: concentration for killing of 99% of C. albicans at different pH (Example 13, FIG. 2). Format: cell-based. The conditions noted are these: FIG. 2, different pH. From the text: In this example the concentrations needed of three peptides according to the invention for killing of 99% of C. albicans at different pH was compared to a reference peptide. The peptides according to the invention were peptide 2 (linear), peptide 3 (cyclic), peptide 4 (linear), peptide 5 (cyclic) and peptide 7 (lactam bridged), all capped. The reference peptides used were an uncapped cyclic form and an uncapped linear form of a Morinaga peptide, Morinaga 24 and 25. The results are illustrated in FIG. 2.

`CC[C@H](C)[C@H](NC(=O)[C@H](CSCNC(C)=O)NC(=O)[C@H](CO)NC(=O)[C@@H](NC(=O)[C@@H]1CCCN1C(=O)[C@@H]1CCCN1C(=O)CNC(=O)[C@H](CCCNC(=N)N)NC(=O)[C@@H](NC(=O)[C@H](CCCCN)NC(=O)[C@H](CCCNC(=N)N)NC(=O)[C@H](CCSC)NC(=O)[C@H](CC(N)=O)NC(=O)[C@H](CCCNC(=N)N)NC(=O)[C@H](CCC(N)=O)NC(=O)[C@H](Cc1c[nH]c2ccccc12)NC(=O)[C@H](CCC(N)=O)NC(=O)[C@H](Cc1ccccc1)NC(=O)[C@H](CSCNC(C)=O)NC(=O)[C@H](CCCCN)NC(=O)[C@@H](NC(C)=O)[C@@H](C)O)C(C)C)C(C)C)C(=O)N[C@@H](CCCCN)C(=O)N[C@@H](CCCNC(=N)N)C(N)=O` [Peptide 4] (Ac-TKC(Acm)FQWQRNMRKVRGPPVSC(Acm)IKR-NH2): the “Statistical comparison of treatment group with control group of the number of bacteria, CFU, present in kidney (p, Mann-Whitney)” value in the experiment on E. coli O6K5 [1] (Exp I, mouse strain CH/HeN) is “p = 0.0137”; in the experiment on E. coli O6K5 [1] (Exp II, mouse strain C3H/Tif), “p = 0.0102”. This compound also gave an MIC against C. albicans [2] of 5.0 µg/mL (≈ 1.67 µM). Moreover, the MMC99% in the experiment with C. albicans [2] (C. albicans, BHI diluted 1/100, twofold dilutions from 20 μg/ml) is 5.0 µg/mL; in the experiment with C. albicans [3], 6.3; with C. albicans [4], 5; in the experiment on C. neoformans it was “≦3.1”; in the experiment with E. coli O6K5 [6], 20. In addition, the “Concentration of agent for 100% killing” value in the experiment on Candida albicans is 10 µg/mL. Moreover, the “% inhibition of LPS response” value in experiment [5] (IL-6 response in THP-1 cells) came to 39%. Moreover, in experiment [5] (THP-1 cells), the “inhibitory activity on the LPS-induced IL-6 response (in words)” value is “significant inhibition”. The “ratio hLF/pep. (concentration for 99% killing)” value in the experiment with Candida krusei (C. krusei CCUG 969) and in the experiment with Candida krusei (C. krusei CCUG 35849) was 10 in each case. In addition, the “Concentration of agent for 99% killing” value in the experiment with Candida krusei (C. krusei CCUG 969, 0.05 mM KCl pH 7.0) stood at 2.5 µg/mL; in the experiment with Candida krusei (C. krusei CCUG 35849, 0.05 mM KCl pH 7.0) it was 1.25 µg/mL. For the same compound, the “concentration needed for killing of 99% of C. albicans, compared with the capped cyclic peptides (in words)” value with C. albicans [7] is given as “better effects than the capped cyclic peptides”.

(Values after patent US7803757B2, “Peptides based on the sequence of human lactoferrin and their use” (PharmaSurgics in Sweden AB, priority 1998, dated 2010).)
